Experimental data: patent US11530221B2, “Pyrimido[4,5-d]pyrimidin-2-one derivatives as protein kinase inhibitors” (KOREA INSTITUTE OF SCIENCE AND TECHNOLOGY, priority 2019, dated 2022)
Where two headings read alike, the source gives them in different places. Square brackets hold non-standard residues; d marks the D form. Peptide text beside a SMILES is read from it. * marks the point of attachment. X1 = Cc1ccc(Nc2ncc3c(n2)N(C)C(=O)N(c2cc(C(=O)*)ccc2C)C3)cn1; Chg = N[C@H](C(=O)O)C1CCCCC1; Nva = CCC[C@H](N)C(=O)O; Aib = CC(C)(N)C(=O)O

How the values were obtained:
Type in all cases: biochemical
LCK = LCK (Homo sapiens, UniProt P06239); assay: IC50 inhibitory activity against LCK kinase
Method: (§1) IC50 values were calculated by measuring the inhibitory activity against LCK, c-Src, p38a/MAPK14, ABL1, DDR1 and FGR kinases of the compounds of the present invention.

ABL1 (T315I) = ABL1 (T315I) (Homo sapiens, UniProt P00519, T315I); assay: IC50 inhibitory activity against ABL1 (T315I) kinase
Method: as §1

c-Src = c-Src (Homo sapiens, UniProt P12931); assay: IC50 inhibitory activity against c-Src kinase
Method: as §1

p38a/MAPK14 = p38a/MAPK14 (Homo sapiens, UniProt Q16539); assay: IC50 inhibitory activity against p38a/MAPK14 kinase
Method: as §1

ABL1 = ABL1 (Homo sapiens, UniProt P00519); assay: IC50 inhibitory activity against ABL1 kinase
Method: as §1

LCK, sequence (P06239 whole entry): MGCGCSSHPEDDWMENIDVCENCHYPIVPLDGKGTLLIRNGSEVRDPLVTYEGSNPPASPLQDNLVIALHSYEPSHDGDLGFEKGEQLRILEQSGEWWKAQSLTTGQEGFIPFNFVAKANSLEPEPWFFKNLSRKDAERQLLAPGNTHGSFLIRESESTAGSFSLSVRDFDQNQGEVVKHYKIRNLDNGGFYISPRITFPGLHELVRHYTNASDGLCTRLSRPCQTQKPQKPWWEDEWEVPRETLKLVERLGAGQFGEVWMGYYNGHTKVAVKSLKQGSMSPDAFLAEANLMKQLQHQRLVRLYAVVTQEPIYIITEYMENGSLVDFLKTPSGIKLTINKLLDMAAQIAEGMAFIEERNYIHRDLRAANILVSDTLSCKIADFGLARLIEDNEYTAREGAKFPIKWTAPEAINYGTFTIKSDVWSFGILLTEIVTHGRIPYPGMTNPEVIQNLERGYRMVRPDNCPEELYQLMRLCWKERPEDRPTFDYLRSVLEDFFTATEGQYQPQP
c-Src, sequence (P12931 whole entry): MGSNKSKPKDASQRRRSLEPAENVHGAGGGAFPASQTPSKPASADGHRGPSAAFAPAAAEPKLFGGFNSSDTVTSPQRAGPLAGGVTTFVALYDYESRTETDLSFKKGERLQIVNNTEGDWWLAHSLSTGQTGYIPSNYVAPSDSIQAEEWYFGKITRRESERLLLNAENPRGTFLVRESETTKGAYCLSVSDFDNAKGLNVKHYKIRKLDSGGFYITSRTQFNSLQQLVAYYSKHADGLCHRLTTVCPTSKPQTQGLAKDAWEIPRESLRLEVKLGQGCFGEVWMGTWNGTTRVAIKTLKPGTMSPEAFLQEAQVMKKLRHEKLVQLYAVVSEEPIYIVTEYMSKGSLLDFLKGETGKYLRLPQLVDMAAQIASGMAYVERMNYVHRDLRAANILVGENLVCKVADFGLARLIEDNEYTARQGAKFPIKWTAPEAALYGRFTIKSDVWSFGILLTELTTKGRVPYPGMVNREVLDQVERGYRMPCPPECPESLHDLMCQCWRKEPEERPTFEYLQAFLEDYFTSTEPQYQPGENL
p38a/MAPK14, sequence (Q16539 whole entry): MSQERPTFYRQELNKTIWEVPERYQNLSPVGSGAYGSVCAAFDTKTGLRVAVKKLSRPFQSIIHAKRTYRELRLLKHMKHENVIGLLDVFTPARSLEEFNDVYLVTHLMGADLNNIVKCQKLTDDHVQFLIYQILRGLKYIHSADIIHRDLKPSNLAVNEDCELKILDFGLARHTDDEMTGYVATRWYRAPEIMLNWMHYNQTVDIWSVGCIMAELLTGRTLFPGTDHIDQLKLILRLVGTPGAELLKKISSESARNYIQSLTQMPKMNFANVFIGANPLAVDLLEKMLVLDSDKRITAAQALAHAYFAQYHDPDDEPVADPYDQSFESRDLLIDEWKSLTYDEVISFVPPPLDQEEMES

| Structure (SMILES) | IC50 (LCK; read-out: LCK IC50) [nM] | IC50 (ABL1 (T315I); read-out: ABL1 (T315I) IC50) [nM] | IC50 (c-Src; read-out: c-Src IC50) [nM] | IC50 (p38a/MAPK14; read-out: p38a/MAPK14 IC50) [nM] | IC50 (ABL1; read-out: ABL1 IC50) [nM] | other results |
| --- | --- | --- | --- | --- | --- | --- |
| Cc1ccc(Nc2ncc3c(n2)N(C)C(=O)N(c2cc(C(=O)N[C@H](C(=O)N4CCC[C@@H]4C(=O)NC(C)(C)C(=O)N[C@@H](CC(C)C)C(=O)N(C)C)C(C)C)ccc2C)C3)cn1 [Example 2, (R)—N-(1-(((S)-1-(dimethylamino)-4-methyl-1-oxopentan-2-yl)amino)-2-methyl-1-oxopropan-2-yl)-1-((4-methyl-3-(1-methyl-7-((6-methylpyridin-3-yl)amino)-2-oxo-1,4-dihydropyrimido[4,5-d]pyrimidin-3(2H)-yl)benzoyl)-L-valyl)pyrrolidine-2-carboxamide] (X1-V[dP][Aib]L-NMe2) |  |  |  |  |  | IC50 (LCK): 1 to 200 nM; IC50 (ABL1 (T315I)): > 600 nM; IC50 (c-Src): 200 to 400 nM; IC50 (p38a/MAPK14): > 600 nM; IC50 (ABL1): 200 to 400 nM |
| Cc1ccc(Nc2ncc3c(n2)N(C)C(=O)N(c2cc(C(=O)N[C@H](C(=O)N4CCC[C@H]4C(=O)NC(C)(C)C(=O)N[C@@H](CC(C)C)C(=O)N(C)C)C4CCCCC4)ccc2C)C3)cn1 [Example 19, (S)-1-((S)-2-cyclohexyl-2-((4-methyl-3-(1-methyl-7-((6-methylpyridin-3-yl)amino)-2-oxo-1,4-dihydropyrimido[4,5-d]pyrimidin-3(2H)-yl)benzamido)acetyl)-N-(1-(((S)-1-dimethylamino)-4-methyl-1-oxopentan-2-yl)amino)-2-methyl-1-oxopropan-2-yl]pyrrolidine-2-carboxamide] (X1-[Chg]P[Aib]L-NMe2) |  |  |  |  |  | IC50 (LCK): 1 to 200 nM; IC50 (c-Src): 400 to 600 nM; IC50 (ABL1): 200 to 400 nM |
| Cc1ccc(Nc2ncc3c(n2)N(C)C(=O)N(c2cc(C(=O)N[C@@H](CC(C)C)C(=O)N4CCC[C@H]4C(=O)NC(C)(C)C(=O)N[C@@H](CC(C)C)C(=O)N(C)C)ccc2C)C3)cn1 [Example 20, (S)—N-(1-(((S)-1-(dimethylamino)-4-methyl-1-oxopentan-2-yl)amino)-2-methyl-1-oxopropan-2-yl)-1-((4-methyl-3-(1-methyl-7-((6-methylpyridin-3-yl)amino)-2-oxo-1,4-dihydropyrimido[4,5-d]pyrimidin-3(2H)-yl)benzoyl)-L-lucyl)pyrrolidine-2-carboxamide] (X1-LP[Aib]L-NMe2) |  |  |  |  |  | IC50 (LCK): 1 to 200 nM; IC50 (c-Src): 1 to 200 nM; IC50 (ABL1): 1 to 200 nM |
| CCC[C@H](NC(=O)c1ccc(C)c(N2Cc3cnc(Nc4ccc(C)nc4)nc3N(C)C2=O)c1)C(=O)N1CCC[C@H]1C(=O)NC(C)(C)C(=O)N[C@@H](CC(C)C)C(=O)N(C)C [Example 21, (S)—N-(1-(((S)-1-(dimethylamino)-4-methyl-1-oxopentan-2-yl)amino)-2-methyl-1-oxopropan-2-yl)-1-((S)-2-(4-methyl-3-(1-methyl-7-((6-methylpyridin-3-yl)amino)-2-oxo-1,4-dihydropyrimido[4,5-d]pyrimidin-3(2H)-yl)benzamido)pentanoyl)pyrrolidine-2-carboxamide] (X1-[Nva]P[Aib]L-NMe2) |  |  |  |  |  | IC50 (LCK): 1 to 200 nM; IC50 (c-Src): 400 to 600 nM; IC50 (ABL1): 1 to 200 nM |
| Cc1ccc(Nc2ncc3c(n2)N(C)C(=O)N(c2cc(NC(=O)c4ccc5c(c4)NC(=O)[C@H](Cc4ccccc4)N=C5c4ccccc4)ccc2C)C3)cn1 [Example 26, (S)-3-benzyl-N-(4-methyl-3-(1-methyl-7-((6-methylpyridin-3-yl)amino)-2-oxo-1,4-dihydropyrimido[4,5-d]pyrimidin-3(2H)-yl)phenyl)-2-oxo-5-phenyl-2,3-dihydro-1H-benzo[e][1,4]diazepine-8-carboxamide] | 1 to 200 | > 600 | 1 to 200 | > 600 | 1 to 200 |  |
| Cc1ccc(Nc2ncc3c(n2)N(C)C(=O)N(c2cc(NC(=O)c4ccc5c(c4)NC(=O)[C@H](C)N=C5c4ccccc4)ccc2C)C3)cn1 [Example 30, (S)-3-methyl-N-(4-methyl-3-(1-methyl-7-((6-methylpyridin-3-yl)amino)-2-oxo-1,4-dihydropyrimido[4,5-d]pyrimidin-3(2H)-yl)phenyl)-2-oxo-5-phenyl-2,3-dihydro-1H-benzo[e][1,4]diazepine-8-carboxamide] | 1 to 200 | > 600 | 1 to 200 | 1 to 200 | 1 to 200 |  |
| CC[C@@H](C)[C@H]1N=C(c2ccccc2)c2ccc(C(=O)Nc3ccc(C)c(N4Cc5cnc(Nc6ccc(C)nc6)nc5N(C)C4=O)c3)cc2NC1=O [Example 32, (R)-3-((R)-sec-butyl)-N-(4-methyl-3-(1-methyl-7-((6-methylpyridin-3-yl)amino)-2-oxo-1,4-dihydropyrimido[4,5-d]pyrimidin-3(2H)-yl)phenyl)-2-oxo-5-phenyl-2,3-dihydro-1H-benzo[e][1,4]diazepine-8-carboxamide] | 1 to 200 | > 600 | 1 to 200 | 200 to 400 | 1 to 200 |  |
| Cc1ccc(Nc2ncc3c(n2)N(C)C(=O)N(c2cc(C(=O)N4C[C@@H](C(=O)NCc5ccccc5)[C@H](C(=O)NCc5ccc(Cl)cc5)C4)ccc2C)C3)cn1 [Example 47, (3S,4S)—N^3-benzyl-N^4-(4-chlorobenzyl)-1-(4-methyl-3-(1-methyl-7-((6-methylpyridin-3-yl)amino)-2-oxo-1,4-dihydropyrimido[4,5-d]pyrimidin-3(2H)-yl)benzoyl)pyrrolidine-3,4-dicarboxamide] | 1 to 200 |  | 1 to 200 | 1 to 200 | 1 to 200 |  |
| Cc1ccc(Nc2ncc3c(n2)N(C)C(=O)N(c2cc(C(=O)N4C[C@@H](C(=O)NCCc5c[nH]c6ccccc56)[C@H](C(=O)NCc5ccc(Cl)cc5)C4)ccc2C)C3)cn1 [Example 48, (3S,4S)—N^3-(2-(1H-indol-3-yl)ethyl)-N^4-(4-chlorobenzyl)-1-(4-methyl-3-(1-methyl-7-((6-methylpyridin-3-yl)amino)-2-oxo-1,4-dihydropyrimido[4,5-d]pyrimidin-3(2H)-yl)benzoyl)pyrrolidine-3,4-dicarboxamide] | 1 to 200 |  | 1 to 200 | 400 to 600 | 1 to 200 |  |
| Cc1ccc(Nc2ncc3c(n2)N(C)C(=O)N(c2cc(NC(=O)c4ccc([N+](=O)[O-])c(OCC(C)C)c4)ccc2C)C3)cn1 [Example 49, 3-isobutoxy-N-(4-methyl-3-(1-methyl-7-((6-methylpyridin-3-yl)amino)-2-oxo-1,4-dihydropyrimido[4,5-d]pyrimidin-3(2H)-yl)phenyl)-4-nitrobenzamide] |  | > 600 |  | 1 to 200 | 1 to 200 |  |
| Cc1ccc(Nc2ncc3c(n2)N(C)C(=O)N(c2cc(NC(=O)c4ccc([N+](=O)[O-])c(OCCc5c[nH]c6ccccc56)c4)ccc2C)C3)cn1 [Example 50, 3-(2-(1H-indol-3-yl)ethoxy)-N-(4-methyl-3-(1-methyl-7-((6-methylpyridin-3-yl)amino)-2-oxo-1,4-dihydropyrimido[4,5-d]pyrimidin-3(2H)-yl)phenyl)-4-nitrobenzamide] |  |  |  | 200 to 400 | 1 to 200 |  |
| COc1ccc(CCOc2cc(C(=O)Nc3ccc(C)c(N4Cc5cnc(Nc6ccc(C)nc6)nc5N(C)C4=O)c3)ccc2[N+](=O)[O-])cc1 [Example 51, 3-(4-methoxyphenethoxy)-N-(4-methyl-3-(1-methyl-7-((6-methylpyridin-3-yl)amino)-2-oxo-1,4-dihydropyrimido[4,5-d]pyrimidin-3(2H)-yl)phenyl)-4-nitrobenzamide] | 1 to 200 |  |  | 1 to 200 | 1 to 200 |  |
| Cc1ccc(Nc2ncc3c(n2)N(C)C(=O)N(c2cc(NC(=O)CNC(=O)c4ccc([N+](=O)[O-])c(OCC(C)C)c4)ccc2C)C3)cn1 [Example 52, 3-isobutoxy-N-(2-((4-methyl-3-(1-methyl-7-((6-methylpyridin-3-yl)amino)-2-oxo-1,4-dihydropyrimido[4,5-d]pyrimidin-3(2H)-yl)phenyl)amino)-2-oxoethyl)-4-nitrobenzamide] |  | > 600 |  | 400 to 600 | 1 to 200 |  |
| Cc1ccc(Nc2ncc3c(n2)N(C)C(=O)N(c2cc(NC(=O)[C@H](C)NC(=O)c4ccc([N+](=O)[O-])c(OCC(C)C)c4)ccc2C)C3)cn1 [Example 53, (S)-3-isobutoxy-N-(1-((4-methyl-3-(1-methyl-7-((6-methylpyridin-3-yl)amino)-2-oxo-1,4-dihydropyrimido[4,5-d]pyrimidin-3(2H)-yl)phenyl)amino)-2-oxopropan-2-yl)-4-nitrobenzamide] |  |  |  | > 600 | > 600 |  |
| Cc1ccc(Nc2ncc3c(n2)N(C)C(=O)N(c2cc(NC(=O)[C@H](CC(C)C)NC(=O)c4ccc([N+](=O)[O-])c(OCC(C)C)c4)ccc2C)C3)cn1 [Example 54, (S)-3-isobutoxy-N-(4-methyl-1-((4-methyl-3-(1-methyl-7-((6-methylpyridin-3-yl)amino)-2-oxo-1,4-dihydropyrimido[4,5-d]pyrimidin-3(2H)-yl)phenyl)amino)-1-oxopentan-2-yl)-4-nitrobenzamide] |  | > 600 |  | > 600 | 1 to 200 |  |
| COc1ccc(CCOc2cc(C(=O)N[C@@H](C)C(=O)Nc3ccc(C)c(N4Cc5cnc(Nc6ccc(C)nc6)nc5N(C)C4=O)c3)ccc2[N+](=O)[O-])cc1 [Example 56] |  |  |  | > 600 | 1 to 200 |  |
| Cc1ccc(Nc2ncc3c(n2)N(C)C(=O)N(c2cc(NC(=O)[C@@H]4CN(C(=O)OCC(Cl)(Cl)Cl)C[C@H]4C(=O)NCc4ccc(Cl)cc4)ccc2C)C3)cn1 [Example 57, 2,2,2-trichloroethyl (3S,4S)-3-((4-chlorobenzyl)carbamoyl)-4-((4-methyl-3-(1-methyl-7-((6-methylpyridin-3-yl)amino)-2-oxo-1,4-dihydropyrimido[4,5-d]pyrimidin-3(2H)-yl)phenyl)carbamoyl)pyrrolidine-1-carboxylate] | 1 to 200 |  | 1 to 200 | 1 to 200 | 1 to 200 |  |
